Experimental findings from patent US4820695A, “C-20-dihydro-deoxy-(cyclic amino)-derivatives of macrolide antibiotics” (priority 1987, dated 1989) are described below.

The subject of series [1] is Staphyloccus aureus X1.1. Kind of series: MIC, standard agar-dilution assay (Table IX). The class given is cell-based, Staphylococcus aureus.
Series [2] concerns Staphylococcus aureus V41. Kind of series: MIC, standard agar-dilution assay (Table IX). The class given is cell-based. The note with it: Staphylococcus aureus V41, Penicillin-resistant strain.
Series [3] relates to Staphylococcus aureus X400. Kind of series: MIC, standard agar-dilution assay (Table IX). The format is cell-based. Conditions: Staphylococcus aureus X400, Methicillin-resistant strain.
Series [4] relates to Staphylococcus aureus S13E. Kind of series: MIC, standard agar-dilution assay (Table IX). The format is cell-based.
For series [5], the system named is Staphylococcus epidermidis EPI1. Description: MIC, standard agar-dilution assay (Table IX). The note with it: Staphylococcus epidermidis EPI1, agar-dilution. The format is cell-based.
The subject of series [6] is Staphylococcus epidermidis 222. Kind of series: MIC, standard agar-dilution assay (Table IX). The class given is cell-based.
The subject of series [7] is Streptococcus pyogenes C203. Kind of series: MIC, standard agar-dilution assay (Table IX). The format is cell-based.
For series [8], the system named is Streptococcus pneumoniae Park I. Description: MIC, standard agar-dilution assay (Table IX). The note with it: Streptococcus pneumoniae Park I, agar-dilution. The class given is cell-based.
Series [9] deals with Streptococcus Group D X66. Description: MIC, standard agar-dilution assay (Table IX). The format is cell-based.
In series [10] the test system is Streptococcus Group D 2041. Description: MIC, standard agar-dilution assay (Table IX). The class given is cell-based.
In series [11] the test system is Haemophilus influenzae C.L. Kind of series: MIC, standard agar-dilution assay (Table IX). The class given is cell-based. The note with it: Ampicillin-sensitive strain.
In series [12] the test system is Haemophilus influenzae 76. Kind of series: MIC, standard agar-dilution assay (Table IX). The class given is cell-based. The note with it: Haemophilus influenzae 76, Ampicillin-resistant strain.
The test system of series [13] is Escherichia coli N10. Kind of series: MIC, standard agar-dilution assay (Table IX). The format is cell-based.
Series [14] relates to Escherichia coli EC14. Description: MIC, standard agar-dilution assay (Table IX). The format is cell-based.
For series [15], the system named is Escherichia coli TEM. Description: MIC, standard agar-dilution assay (Table IX). The format is cell-based.
The test system of series [16] is Klebsiella X26. Kind of series: MIC, standard agar-dilution assay (Table IX). The format is cell-based.
Series [17] relates to Mycoplasma gallisepticum 29C. Description: MIC, broth-dilution microtiter test (Table X). The format is cell-based. An excerpt:
(§1) The MIC's in Table X were obtained using conventional broth-dilution microtiter tests.

The test system of series [18] is Mycoplasma hyopneumoniae S5972. Kind of series: MIC, broth-dilution microtiter test (Table X). The format is cell-based.
Text: as §1

The subject of series [19] is Mycoplasma hyorhinis 29E. Description: MIC, broth-dilution microtiter test (Table X). The class given is cell-based.
Text: as §1

For series [20], the system named is Mycoplasma synoviae 40A. Description: MIC, broth-dilution microtiter test (Table X). The format is cell-based.
Text: as §1

Series [21] relates to Pasteurella hemolytica 22C. Kind of series: MIC, broth-dilution microtiter test (Table X). The class given is cell-based.
Text: as §1

For series [22], the system named is Pasteurella multocida 17E. Description: MIC, broth-dilution microtiter test (Table X). The format is cell-based. Conditions: Bovine isolate.
Text: as §1

Series [23] relates to Pasteurella multocida 60A. Description: MIC, broth-dilution microtiter test (Table X). The class given is cell-based. Conditions: Avian isolate.
Text: as §1

For series [24], the system named is Staphylococcus aureus. Description: MIC, broth-dilution microtiter test (Table X). The class given is cell-based.
Text: as §1

Series [25] deals with Streptococcus sp. 19F. Kind of series: MIC, broth-dilution microtiter test (Table X). The format is cell-based.
Text: as §1

In series [26] the test system is Streptococcus pyogenes C203. Description: ED50 in mice experimentally infected with S. pyogenes C203 (Table XI). The format is in vivo. Conditions: Streptococcus pyogenes, doses given 1 and 4 hours postinfection, read-out: ED50. Here is the method: The C-20 modified derivatives of this invention have shown in vivo antimicrobial activity against experimentally-induced infections in laboratory animals. When two doses of test compound were administered to mice experimentally infected with S. pyogenes C203, the activity observed was measured as an ED50 value [effective dose in mg/kg to protect 50% of the test animals: see Warren Wick, et al., J. Bacteriol. 81, 233-235 (1961)].
^a mg/kg × 2; doses given 1 and 4 hours postinfection

For series [27], the system named is Pasteurella multocida. Description: Pasteurella infection in one-day-old chicks, subcutaneous administration (Table XII). The class given is in vivo. The note with it: Administered subcutaneously, 30 mg/kg × 2, 1 and 4 hours post-challenge. Here is the method: (§2) Many of the C-20 modified derivatives of this invention have also shown in vivo antibacterial activity against infections induced by gram-negative bacteria. Tables XII and XIII summarize the results of tests in which illustrative compounds were evaluated against a Pasteurella infection in one-day-old chicks. The compounds were administered parenterally or orally after challenge of the chicks with Pasteurella multocida (0.1 ml of a 10^-4 dilution of a twenty-hour tryptose broth culture of an avian P. multocida given subcutaneously). In these tests, unless indicated otherwise, all non-medicated infected chicks died within 24 hours of Pasteurella challenge. In the tests summarized in Table XII, the compounds were administered by subcutaneous injection at a dosage of 30 mg/kg, 1 and 4 hours post-challenge of the chicks with P. multocida. In the tests summarized in Table XIII the compounds were administered in medicated drinking water (at a level of 2 g/gal) available from 4 to 20 hours prior to challenge of the chicks with P. multocida and during the 3 -day test period.
^a Administered subcutaneously; 30 mg/kg × 2

The test system of series [28] is Pasteurella multocida. Kind of series: Pasteurella infection in one-day-old chicks, medicated drinking water (Table XIII). The class given is in vivo. Conditions: Administered in the available drinking water at 2 g/gal. Here is the method:
as §2
^a Administered in the available drinking water at a concentration of […]

Series [29] is described as follows: Titratable groups in 66% aqueous DMF (Tables XIV-XVI). The format is physicochemical. The source says: ^c Run in 66% aqueous DMF
^d Run in 66% aqueous DMF

≈ marks a conversion by molar mass, not a printed value. Where two headings read alike, the source gives them in different places.

Turning to `CCC1OC(=O)CC(O)C(C)C(OC2OC(C)C(O)C(N(C)C)C2O)C(CCN2CC=C(c3ccccc3)CC2)CC(C)C(=O)C=CC(C)=CC1COC1OC(C)C(O)C(OC)C1OC` (stereo not shown) [Compound D26, 20-DH-DO-20-(4-phenyl-1,2,3,6-tetrahydropyridin-1-yl)desmycosin], the MIC was 0.5 µg/mL (≈ 0.546 µM) in series [1] (Staphylococcus aureus, read-out: MIC); 0.5 µg/mL (≈ 0.546 µM) in [2] (read-out: MIC); 0.5 µg/mL (≈ 0.546 µM) in series [3] (read-out: MIC); 0.5 µg/mL (≈ 0.546 µM) in series [4] (Staphylococcus aureus, S13E); 0.5 µg/mL (≈ 0.546 µM) in [5] (read-out: MIC); 0.25 µg/mL (≈ 0.273 µM) in series [6] (read-out: MIC). Besides, the MIC stood at 0.25 µg/mL (≈ 0.273 µM) in [7] (read-out: MIC); 0.25 µg/mL (≈ 0.273 µM) in [8] (read-out: MIC); 1 µg/mL (≈ 1.09 µM) in series [9] (read-out: MIC); 2 µg/mL (≈ 2.19 µM) in [10] (GROUPD2041, read-out: MIC); 32 µg/mL (≈ 35 µM) in series [11] (read-out: MIC); 8 µg/mL (≈ 8.74 µM) in series [12] (read-out: MIC). For the same molecule, the MIC in series [13] (read-out: MIC) is 128 µg/mL (≈ 140 µM); in [14] (read-out: MIC) it was 128 µg/mL (≈ 140 µM); in series [15] (read-out: MIC), 32 µg/mL (≈ 35 µM); in series [16] (read-out: MIC) it was 64 µg/mL (≈ 69.9 µM); in series [17] (Mycoplasmoides gallisepticum, read-out: MIC) it was ≤ 0.048 µg/mL; in series [18] (Mesomycoplasma hyopneumoniae, read-out: MIC), 0.78 µg/mL (≈ 0.852 µM). In addition, the MIC in [19] (read-out: MIC) came to 25 µg/mL (≈ 27.3 µM); in series [20] (Mycoplasmopsis synoviae, read-out: MIC), 0.78 µg/mL (≈ 0.852 µM); in series [21] (read-out: MIC), 12.5 µg/mL (≈ 13.7 µM); in [22] (read-out: MIC), 6.25 µg/mL (≈ 6.83 µM); in series [23] (read-out: MIC) it was 12.5 µg/mL (≈ 13.7 µM); in [24] (read-out: MIC) it was 3.12 µg/mL (≈ 3.41 µM). Further, the MIC in series [25] (read-out: MIC) is 0.78 µg/mL (≈ 0.852 µM). Further, the ED50 (usually the midpoint of the dose-response relation) in series [26] (C203, Oral) was found to be 12.5 mg/kg; in series [26] (C203, sc, Subcutaneous) it was 5.61 mg/kg. Further, the “Number of Deaths/Number Treated” value in series [27] is listed as 10/10.
For the molecule `CCC1OC(=O)CC(O)C(C)C(OC2OC(C)C(O)C(N(C)C)C2O)C(CCN2CC3CCC(C)(C2)C3(C)C)CC(C)C(=O)C=CC(C)=CC1COC1OC(C)C(O)C(OC)C1OC` (stereo not shown) [Compound D47], the results for the “Number of Deaths/Number Treated” value in series [27] and in series [28] were 0/10 and 6/10, respectively.
With `CCC1OC(=O)CC(O)C(C)C(OC2OC(C)C(O)C(N(C)C)C2O)C(CCN2CCC(C)CC(C)(C)C2)CC(C)C(=O)C=CC(C)=CC1COC1OC(C)C(O)C(OC)C1OC` (single isomer, unassigned) [Compound D24, 20-DH-DO-20-(3,3,5-Trimethylhexahydroazepin-1-yl)desmycosin], the MIC in series [1] turned out to be 0.5 µg/mL (≈ 0.557 µM); in series [2] it was 0.5 µg/mL (≈ 0.557 µM); in series [3] it was 1 µg/mL (≈ 1.11 µM); in series [4] (Staphylococcus aureus S13E, agar-dilution), 0.5 µg/mL (≈ 0.557 µM); in [5], 0.5 µg/mL (≈ 0.557 µM); in series [6] it was 0.25 µg/mL (≈ 0.279 µM). Also, the MIC came to 0.25 µg/mL (≈ 0.279 µM) in series [7]; 1 µg/mL (≈ 1.11 µM) in series [8]; 4 µg/mL (≈ 4.46 µM) in series [9]; 8 µg/mL (≈ 8.92 µM) in [10]; 32 µg/mL (≈ 35.7 µM) in series [11]; 8 µg/mL (≈ 8.92 µM) in series [12]. The MIC in series [13] stood at 64 µg/mL (≈ 71.3 µM); in series [14] it was 64 µg/mL (≈ 71.3 µM); in series [15], 32 µg/mL (≈ 35.7 µM); in [16], 128 µg/mL (≈ 143 µM); in [17], 0.39 µg/mL (≈ 0.435 µM); in series [18], 0.78 µg/mL (≈ 0.869 µM). Moreover, the MIC is 25 µg/mL (≈ 27.9 µM) in series [19]; 0.097 µg/mL (≈ 0.108 µM) in series [20]; 6.25 µg/mL (≈ 6.97 µM) in series [21]; 12.5 µg/mL (≈ 13.9 µM) in series [22]; 6.25 µg/mL (≈ 6.97 µM) in series [23]; 3.12 µg/mL (≈ 3.48 µM) in series [24]. Moreover, the MIC in series [25] was determined as 3.12 µg/mL (≈ 3.48 µM). Moreover, in [27], the “Number of Deaths/Number Treated” value is reported as 2/10. In series [29], the “Titratable groups” value worked out at 9.4. In series [29], the “Titratable groups (first value)” value is given as 7.9.
